Source: the NIST ThermoML archive (doi:10.1016/j.jct.2005.06.011)

How the values were obtained:
[1] = xn = mol fraction of the nth substance listed; settings: 101 kPa, Liquid; for speed of sound: Linear variable-path acoustic interferometer
[2] = refractive index (Na D-line) (dimensionless); xn = mol fraction of the nth substance listed; settings: 101 kPa, Liquid

CC(C)CO [2-methyl-1-propanol] + CC1CCCCC1
x2 = 0
Settings | mass density, 298.15 K [kg/m3] | mass density, 303.15 K [kg/m3] | mass density, 308.15 K [kg/m3] | refractive index, 298.15 K | refractive index, 303.15 K | refractive index, 308.15 K | speed of sound, 298.15 K [m/s] | viscosity, 298.15 K [mPa·s] | viscosity, 303.15 K [mPa·s] | viscosity, 308.15 K [mPa·s]
[1] | 809.31 | 805.23 | 801.11 | – | – | – | 1170 | 3.097 | 2.635 | 2.249
[2] | – | – | – | 1.3932 | 1.3917 | 1.3896 | – | – | – | –

CC(C)CCO [3-methylbutan-1-ol] + CC1CCCCC1
Settings | mass density, 298.15 K [kg/m3] | mass density, 303.15 K [kg/m3] | mass density, 308.15 K [kg/m3] | refractive index, 298.15 K | refractive index, 303.15 K | refractive index, 308.15 K | speed of sound, 298.15 K [m/s] | viscosity, 298.15 K [mPa·s] | viscosity, 303.15 K [mPa·s] | viscosity, 308.15 K [mPa·s]
[1], x2 = 0 | 820.17 | 816.28 | 812.34 | – | – | – | 1259 | 2.779 | 2.258 | 1.844
[1], x2 = 0.1002 | 814.65 | 810.69 | 806.74 | – | – | – | 1255 | 2.569 | 2.144 | 1.719
[1], x2 = 0.2011 | 809.13 | 805.14 | 801.13 | – | – | – | 1250 | 2.359 | 1.976 | 1.593
[1], x2 = 0.3001 | 803.62 | 799.57 | 795.53 | – | – | – | 1246 | 2.151 | 1.81 | 1.47
[1], x2 = 0.4016 | 798.1 | 794.02 | 789.92 | – | – | – | 1242 | 1.938 | 1.641 | 1.343
[1], x2 = 0.5019 | 792.58 | 788.45 | 784.32 | – | – | – | 1238 | 1.728 | 1.472 | 1.217
[1], x2 = 0.6012 | 787.06 | 782.89 | 778.72 | – | – | – | 1234 | 1.519 | 1.306 | 1.093
[1], x2 = 0.702 | 781.54 | 777.33 | 773.11 | – | – | – | 1230 | 1.307 | 1.136 | 0.9662
[1], x2 = 0.8011 | 776.03 | 771.78 | 767.51 | – | – | – | 1226 | 1.097 | 0.9594 | 0.8412
[1], x2 = 0.9009 | 770.51 | 766.22 | 761.9 | – | – | – | 1221 | 0.8861 | 0.8008 | 0.7156
[2], x2 = 0 | – | – | – | 1.4056 | 1.4034 | 1.4013 | – | – | – | –
[2], x2 = 0.1002 | – | – | – | 1.4073 | 1.405 | 1.4028 | – | – | – | –
[2], x2 = 0.2011 | – | – | – | 1.4089 | 1.4066 | 1.4043 | – | – | – | –
[2], x2 = 0.3001 | – | – | – | 1.4105 | 1.4081 | 1.4058 | – | – | – | –
[2], x2 = 0.4016 | – | – | – | 1.4121 | 1.4097 | 1.4073 | – | – | – | –
[2], x2 = 0.5019 | – | – | – | 1.4137 | 1.4112 | 1.4088 | – | – | – | –
[2], x2 = 0.6012 | – | – | – | 1.4153 | 1.4128 | 1.4103 | – | – | – | –
[2], x2 = 0.702 | – | – | – | 1.4169 | 1.4144 | 1.4118 | – | – | – | –
[2], x2 = 0.8011 | – | – | – | 1.4185 | 1.4159 | 1.4133 | – | – | – | –
[2], x2 = 0.9009 | – | – | – | 1.4201 | 1.4174 | 1.4148 | – | – | – | –

CCCCO [butan-1-ol] + CC1CCCCC1
x2 = 0
Settings | mass density, 298.15 K [kg/m3] | mass density, 303.15 K [kg/m3] | mass density, 308.15 K [kg/m3] | refractive index, 298.15 K | refractive index, 303.15 K | refractive index, 308.15 K | speed of sound, 298.15 K [m/s] | viscosity, 298.15 K [mPa·s] | viscosity, 303.15 K [mPa·s] | viscosity, 308.15 K [mPa·s]
[1] | 808.49 | 804.6 | 800.67 | – | – | – | 1268 | 2.587 | 2.254 | 1.988
[2] | – | – | – | 1.3983 | 1.3959 | 1.394 | – | – | – | –
